These compounds were tested against T1, human RXFP1 receptor (Homo sapiens, UniProt Q9HBX9) (assay: Intracellular cAMP accumulation assay).
T1 construct: expressed in transfected cells
T1 sequence (Q9HBX9 1-757): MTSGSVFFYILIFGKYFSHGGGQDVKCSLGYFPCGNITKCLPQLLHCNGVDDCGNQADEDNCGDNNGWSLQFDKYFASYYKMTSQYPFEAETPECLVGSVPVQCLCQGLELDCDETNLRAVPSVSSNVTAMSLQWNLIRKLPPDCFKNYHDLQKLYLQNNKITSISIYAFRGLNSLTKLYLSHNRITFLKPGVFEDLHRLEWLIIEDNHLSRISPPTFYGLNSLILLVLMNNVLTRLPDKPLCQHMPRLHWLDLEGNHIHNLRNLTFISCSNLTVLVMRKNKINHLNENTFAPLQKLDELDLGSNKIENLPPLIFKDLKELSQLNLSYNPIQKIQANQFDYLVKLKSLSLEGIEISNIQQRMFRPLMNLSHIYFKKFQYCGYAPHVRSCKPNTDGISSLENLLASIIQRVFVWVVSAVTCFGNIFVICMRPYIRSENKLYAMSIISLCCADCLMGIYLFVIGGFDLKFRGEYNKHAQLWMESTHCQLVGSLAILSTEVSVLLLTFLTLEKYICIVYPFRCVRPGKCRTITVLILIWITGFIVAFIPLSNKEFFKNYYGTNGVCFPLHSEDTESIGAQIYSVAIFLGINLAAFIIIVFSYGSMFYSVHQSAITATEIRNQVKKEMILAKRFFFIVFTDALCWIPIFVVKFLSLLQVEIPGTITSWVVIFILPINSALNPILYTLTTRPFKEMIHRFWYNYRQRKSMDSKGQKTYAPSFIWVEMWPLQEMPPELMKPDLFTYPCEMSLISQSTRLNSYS
Assay type: cell-based
Description: The intracellular cAMP accumulation assay described herein was used to assess relaxin bioactivity and potency.
CHO-K1 cells (ATCC; Cat. #CRL-9618) stably expressing the human RXFP1 receptor (locus number LOC59350) (10,000/well) were plated into 96-well plates and cultured overnight at 37° C. and 5% CO2. On the following day, the medium was removed from the wells and the cells were stimulated with the addition of ligand (relaxin polypeptide) in 50 uL buffer (1×HBSS, 5 mM HEPES (7.2), 0.5 mM IBMX, 0.1% BSA); incubation was for 10 min at 37° C. Unstimulated cells were utilized as reference controls. Reactions were terminated and cellular cAMP levels were measured using the Homogeneous Time Resolved Fluorescence (HTRF) Dynamic 2 cAMP kit (CisBio, #62AM4PEC) according to the manufacturer's protocol. Plates were analyzed using an EnVision 2104 Multilablel Reader (PerkinElmer). Signal was expressed in terms of the ratio of fluorescence intensity @ 665 nm/fluorescence intensity @620 nm×10,000. The concentration of cAMP in the sample was determined by comparison with standard curves generated from known concentrations of cAMP. The potency of each relaxin was determined using a ten-point concentration response curves which was performed in duplicate. The data were analyzed using Microsoft Excel, Version 2013 Xlfit software. Effective concentration 50 (EC50) values, the point at which the response was one-half maximal, were calculated using a four-parameter logistic equation that allowed for a variable-slope (Table 3).

Q: `CC[C@H](C)[C@@H]1NC(=O)[C@H](C)NC(=O)[C@H]([C@@H](C)CC)NC(=O)[C@H](CCC(N)=O)NC(=O)[C@H](C)NC(=O)[C@H](CCCNC(=N)N)NC(=O)[C@H](C(C)C)NC(=O)[C@H](CC(C)C)NC(=O)[C@H](CCC(=O)O)NC(=O)[C@H](CCCNC(=N)N)NC(=O)CNC(=O)[C@@H](NC(=O)[C@H](CC(C)C)NC(=O)[C@H](CCCCN)NC(=O)[C@@H](NC(=O)[C@@H](NC(=O)[C@H](CCC(=O)O)NC(=O)[C@H](CCC(=O)O)NC(=O)[C@H](CCSC)NC(=O)[C@H](Cc2c[nH]c3ccccc23)NC(=O)[C@H](CO)NC(=O)[C@H](C)N)C(C)C)[C@@H](C)CC)CSSC[C@@H]2NC(=O)[C@@H](NC(=O)[C@H](CCCCN)NC(=O)[C@H](CC(N)=O)NC(=O)[C@H](C)NC(=O)[C@H](CC(C)C)NC(=O)[C@H](C)NC(=O)[C@H](CO)NC(=O)[C@H](Cc3ccc(O)cc3)NC(=O)[C@H](CC(C)C)NC(=O)[C@@H](N)Cc3ccc(/C(C)=N/OCCNC(=O)[C@H](CCCCN)NC(=O)CNC(=O)CNC(=O)CNC(=O)[C@H](CO)NC(=O)CC[C@H](NC(=O)CCCCCCCCCCCCCC(=O)O)C(=O)O)cc3)CSSC[C@H](NC(=O)CNC(=O)[C@H](C(C)C)NC(=O)[C@H](Cc3c[nH]cn3)NC2=O)C(=O)N[C@@H]([C@@H](C)O)C(=O)N[C@@H](CCCCN)C(=O)N[C@@H](CCCNC(=N)N)C(=O)N[C@@H](CO)C(=O)N[C@@H](CC(C)C)C(=O)N[C@@H](C)C(=O)N[C@@H](CCCNC(=N)N)C(=O)N[C@@H](Cc2ccccc2)C(=O)N[C@H](C(=O)O)CSSC[C@@H](C(=O)NCC(=O)N[C@@H](CCSC)C(=O)N[C@@H](CO)C(=O)N[C@H](C(=O)N[C@@H](Cc2c[nH]c3ccccc23)C(=O)N[C@@H](CO)C(=O)O)[C@@H](C)O)NC1=O` [AQ1-KGGGS-Glu^γ-C14-COOH] was tested. Which EC50 did it give?
A: 0.34 nM

Q: With `CC[C@H](C)[C@@H]1NC(=O)[C@H](C)NC(=O)[C@H]([C@@H](C)CC)NC(=O)[C@H](CCC(N)=O)NC(=O)[C@H](C)NC(=O)[C@H](CCCNC(=N)N)NC(=O)[C@H](C(C)C)NC(=O)[C@H](CC(C)C)NC(=O)[C@H](CCC(=O)O)NC(=O)[C@H](CCCNC(=N)N)NC(=O)CNC(=O)[C@@H](NC(=O)[C@H](CC(C)C)NC(=O)[C@H](CCCCN)NC(=O)[C@@H](NC(=O)[C@@H](NC(=O)[C@H](CCC(=O)O)NC(=O)[C@H](CCC(=O)O)NC(=O)[C@H](CCSC)NC(=O)[C@H](Cc2c[nH]c3ccccc23)NC(=O)[C@H](CO)NC(=O)[C@H](C)N)C(C)C)[C@@H](C)CC)CSSC[C@@H]2NC(=O)[C@@H](NC(=O)[C@H](CCCCN)NC(=O)[C@H](CC(N)=O)NC(=O)[C@H](C)NC(=O)[C@H](CC(C)C)NC(=O)[C@H](C)NC(=O)[C@H](CO)NC(=O)[C@H](Cc3ccc(O)cc3)NC(=O)[C@H](CC(C)C)NC(=O)[C@@H](N)Cc3ccc(/C(C)=N/OCCNC(=O)[C@H](CCCCN)NC(=O)CNC(=O)[C@@H]4CCCN4C(=O)CC[C@H](NC(=O)CCCCCCCCCCCCCC(=O)O)C(=O)O)cc3)CSSC[C@H](NC(=O)CNC(=O)[C@H](C(C)C)NC(=O)[C@H](Cc3c[nH]cn3)NC2=O)C(=O)N[C@@H]([C@@H](C)O)C(=O)N[C@@H](CCCCN)C(=O)N[C@@H](CCCNC(=N)N)C(=O)N[C@@H](CO)C(=O)N[C@@H](CC(C)C)C(=O)N[C@@H](C)C(=O)N[C@@H](CCCNC(=N)N)C(=O)N[C@@H](Cc2ccccc2)C(=O)N[C@H](C(=O)O)CSSC[C@@H](C(=O)NCC(=O)N[C@@H](CCSC)C(=O)N[C@@H](CO)C(=O)N[C@H](C(=O)N[C@@H](Cc2c[nH]c3ccccc23)C(=O)N[C@@H](CO)C(=O)O)[C@@H](C)O)NC1=O` [AQ1-KGP-Glu^γ-C14-COOH] as the compound, how does the EC50 read?
A: 0.27 nM

Q: With `CC[C@H](C)[C@@H]1NC(=O)[C@H](C)NC(=O)[C@H]([C@@H](C)CC)NC(=O)[C@H](CCC(N)=O)NC(=O)[C@H](C)NC(=O)[C@H](CCCNC(=N)N)NC(=O)[C@H](C(C)C)NC(=O)[C@H](CC(C)C)NC(=O)[C@H](CCC(=O)O)NC(=O)[C@H](CCCNC(=N)N)NC(=O)CNC(=O)[C@@H](NC(=O)[C@H](CC(C)C)NC(=O)[C@H](CCCCN)NC(=O)[C@@H](NC(=O)[C@@H](NC(=O)[C@H](CCC(=O)O)NC(=O)[C@H](CCC(=O)O)NC(=O)[C@H](CCSC)NC(=O)[C@H](Cc2c[nH]c3ccccc23)NC(=O)[C@H](CO)NC(=O)[C@H](C)N)C(C)C)[C@@H](C)CC)CSSC[C@@H]2NC(=O)[C@@H](NC(=O)[C@H](CCCCN)NC(=O)[C@H](CC(N)=O)NC(=O)[C@H](C)NC(=O)[C@H](CC(C)C)NC(=O)[C@H](C)NC(=O)[C@H](CO)NC(=O)[C@H](Cc3ccc(O)cc3)NC(=O)[C@H](CC(C)C)NC(=O)[C@@H](N)Cc3ccc(C(C)=NOCCNC(=O)[C@H](CCCCN)NC(=O)[C@H](CCCCN)NC(=O)CC[C@H](NC(=O)CCCCCCCCCCCCC(=O)O)C(=O)O)cc3)CSSC[C@H](NC(=O)CNC(=O)[C@H](C(C)C)NC(=O)[C@H](Cc3c[nH]cn3)NC2=O)C(=O)N[C@@H]([C@@H](C)O)C(=O)N[C@@H](CCCCN)C(=O)N[C@@H](CCCNC(=N)N)C(=O)N[C@@H](CO)C(=O)N[C@@H](CC(C)C)C(=O)N[C@@H](C)C(=O)N[C@@H](CCCNC(=N)N)C(=O)N[C@@H](Cc2ccccc2)C(=O)N[C@H](C(=O)O)CSSC[C@@H](C(=O)NCC(=O)N[C@@H](CCSC)C(=O)N[C@@H](CO)C(=O)N[C@H](C(=O)N[C@@H](Cc2c[nH]c3ccccc23)C(=O)N[C@@H](CO)C(=O)O)[C@@H](C)O)NC1=O` [AQ1-KK-Glu^γ-C13-COOH] as the compound, how does the EC50 read?
A: 0.1 nM

Q: How did the EC50 turn out when `CC[C@H](C)[C@@H]1NC(=O)[C@H](C)NC(=O)[C@H]([C@@H](C)CC)NC(=O)[C@H](CCC(N)=O)NC(=O)[C@H](C)NC(=O)[C@H](CCCNC(=N)N)NC(=O)[C@H](C(C)C)NC(=O)[C@H](CC(C)C)NC(=O)[C@H](CCC(=O)O)NC(=O)[C@H](CCCNC(=N)N)NC(=O)CNC(=O)[C@@H](NC(=O)[C@H](CC(C)C)NC(=O)[C@H](CCCCN)NC(=O)[C@@H](NC(=O)[C@@H](NC(=O)[C@H](CCC(=O)O)NC(=O)[C@H](CCC(=O)O)NC(=O)[C@H](CCSC)NC(=O)[C@H](Cc2c[nH]c3ccccc23)NC(=O)[C@H](CO)NC(=O)[C@H](C)N)C(C)C)[C@@H](C)CC)CSSC[C@@H]2NC(=O)[C@@H](NC(=O)[C@H](CCCCN)NC(=O)[C@H](CC(N)=O)NC(=O)[C@H](C)NC(=O)[C@H](CC(C)C)NC(=O)[C@H](C)NC(=O)[C@H](CO)NC(=O)[C@H](Cc3ccc(O)cc3)NC(=O)[C@H](CC(C)C)NC(=O)[C@@H](N)Cc3ccc(C(C)=NOCCNC(=O)[C@H](CCCCN)NC(=O)[C@H](CCCCN)NC(=O)[C@H](CO)NC(=O)[C@H](C)NC(=O)CNC(=O)[C@H](CO)NC(=O)[C@H](C)NC(=O)CNC(=O)CC[C@H](NC(=O)CCCCCCCCCCCCC(=O)O)C(=O)O)cc3)CSSC[C@H](NC(=O)CNC(=O)[C@H](C(C)C)NC(=O)[C@H](Cc3c[nH]cn3)NC2=O)C(=O)N[C@@H]([C@@H](C)O)C(=O)N[C@@H](CCCCN)C(=O)N[C@@H](CCCNC(=N)N)C(=O)N[C@@H](CO)C(=O)N[C@@H](CC(C)C)C(=O)N[C@@H](C)C(=O)N[C@@H](CCCNC(=N)N)C(=O)N[C@@H](Cc2ccccc2)C(=O)N[C@H](C(=O)O)CSSC[C@@H](C(=O)NCC(=O)N[C@@H](CCSC)C(=O)N[C@@H](CO)C(=O)N[C@H](C(=O)N[C@@H](Cc2c[nH]c3ccccc23)C(=O)N[C@@H](CO)C(=O)O)[C@@H](C)O)NC1=O` [AQ1-KKSAGSAG-Glu^γ-C13-COOH] was run?
A: 0.27 nM

Reference: US12097241B2, “Methods of treating kidney failure, and/or improving or stablizing renal function using modified relaxin polypeptides” (BRISTOL-MYERS SQUIBB COMPANY, priority 2017, dated 2024)
